Source: the CheMixHub viscosity set
Values joined by “and” are separate entries in the source; they are usually repeats but may differ in a detail not shown here. Equal values may be shown once.

Test: xn = mol fraction of the nth substance listed

COCCO + CCOC(C)=O
viscosity [mPa·s], 101 kPa
Conditions | x1 = 0.0974 | x1 = 0.1945 | x1 = 0.2964 | x1 = 0.3997 | x1 = 0.4973 | x1 = 0.5922 | x1 = 0.6956 | x1 = 0.8008 | x1 = 0.9012
298.15 K | 0.47 | 0.514 | 0.572 | 0.644 | 0.736 | 0.838 | 0.992 | 1.19 | 1.421
303.15 K | 0.444 | 0.484 | 0.536 | 0.601 | 0.683 | 0.775 | 0.912 | 1.086 | 1.286
308.15 K | 0.42 | 0.456 | 0.514 | 0.564 | 0.636 | 0.719 | 0.84 | 0.994 | 1.173

[Cl-].[Li+] + O
Conditions | viscosity
293.15 K, 101 kPa, x1 = 0.17 | 4.51 mPa·s
293.15 K, 101 kPa, x1 = 0.19 | 6.01 mPa·s
293.15 K, 101 kPa, x1 = 0.2 | 7.36 mPa·s
293.15 K, 101 kPa, x1 = 0.22 | 9.66 mPa·s
293.15 K, 101 kPa, x1 = 0.23 | 10.29 mPa·s
293.15 K, 101 kPa, x1 = 0.24 | 11.28 mPa·s and 12.73 mPa·s
293.15 K, 101 kPa, x1 = 0.25 | 14.55 mPa·s
293.15 K, 101 kPa, x1 = 0.26 | 15.87 mPa·s
293.15 K, 101 kPa, x1 = 0.27 | 17.76 mPa·s
298.15 K, 101 kPa, x1 = 0.26 | 16.51 mPa·s
298.15 K, 101.33 kPa, x1 = 0.2626 | 10.73 mPa·s
303.15 K, 101 kPa, x1 = 0.17 | 3.42 mPa·s
303.15 K, 101 kPa, x1 = 0.19 | 4.61 mPa·s
303.15 K, 101 kPa, x1 = 0.2 | 5.59 mPa·s
303.15 K, 101 kPa, x1 = 0.22 | 7.24 mPa·s
303.15 K, 101 kPa, x1 = 0.23 | 7.44 mPa·s
303.15 K, 101 kPa, x1 = 0.24 | 8.19 mPa·s and 9.29 mPa·s
303.15 K, 101 kPa, x1 = 0.25 | 10.53 mPa·s
303.15 K, 101 kPa, x1 = 0.26 | 11.37 mPa·s
303.15 K, 101 kPa, x1 = 0.27 | 12.85 mPa·s
310.15 K, 101 kPa, x1 = 0.000205 | 0.7179 mPa·s
310.15 K, 101 kPa, x1 = 0.00126 | 0.7026 mPa·s
310.15 K, 101 kPa, x1 = 0.001978 | 0.7036 mPa·s
310.15 K, 101 kPa, x1 = 0.002695 | 0.6772 mPa·s
310.15 K, 101 kPa, x1 = 0.003679 | 0.6492 mPa·s
310.15 K, 101 kPa, x1 = 0.005197 | 0.5792 mPa·s
310.15 K, 101 kPa, x1 = 0.005988 | 0.5574 mPa·s
313.15 K, 101 kPa, x1 = 0.17 | 2.73 mPa·s
313.15 K, 101 kPa, x1 = 0.19 | 3.59 mPa·s
313.15 K, 101 kPa, x1 = 0.2 | 4.32 mPa·s
313.15 K, 101 kPa, x1 = 0.22 | 5.44 mPa·s
313.15 K, 101 kPa, x1 = 0.23 | 5.67 mPa·s
313.15 K, 101 kPa, x1 = 0.24 | 6.36 mPa·s and 6.96 mPa·s
313.15 K, 101 kPa, x1 = 0.25 | 7.83 mPa·s
313.15 K, 101 kPa, x1 = 0.26 | 8.46 mPa·s
313.15 K, 101 kPa, x1 = 0.27 | 9.36 mPa·s
323.15 K, 101 kPa, x1 = 0.17 | 2.26 mPa·s
323.15 K, 101 kPa, x1 = 0.19 | 2.94 mPa·s
323.15 K, 101 kPa, x1 = 0.2 | 3.49 mPa·s
323.15 K, 101 kPa, x1 = 0.22 | 4.37 mPa·s
323.15 K, 101 kPa, x1 = 0.23 | 4.48 mPa·s
323.15 K, 101 kPa, x1 = 0.24 | 4.99 mPa·s and 5.38 mPa·s
323.15 K, 101 kPa, x1 = 0.25 | 6.06 mPa·s
323.15 K, 101 kPa, x1 = 0.26 | 6.55 mPa·s
323.15 K, 101 kPa, x1 = 0.27 | 7.22 mPa·s

COCCO + CCCCO
viscosity [mPa·s]
Conditions | 298.15 K | 308.15 K | 313.15 K | 318.15 K
100 kPa, x1 = 0.1009 | 2.27 | – | 1.6 | –
100 kPa, x1 = 0.2003 | 2.06 | – | 1.48 | –
100 kPa, x1 = 0.3003 | 1.91 | – | 1.39 | –
100 kPa, x1 = 0.4012 | 1.8 | – | 1.32 | –
100 kPa, x1 = 0.5008 | 1.72 | – | 1.27 | –
100 kPa, x1 = 0.6012 | 1.65 | – | 1.24 | –
100 kPa, x1 = 0.7006 | 1.61 | – | 1.21 | –
100 kPa, x1 = 0.7998 | 1.58 | – | 1.19 | –
100 kPa, x1 = 0.9 | 1.56 | – | 1.18 | –
101 kPa, x1 = 0.09765 | 2.212 | 1.688 | – | 1.266
101 kPa, x1 = 0.1958 | 2.061 | 1.583 | – | 1.212
101 kPa, x1 = 0.2945 | 1.948 | 1.49 | – | 1.172
101 kPa, x1 = 0.3937 | 1.88 | 1.355 | – | 1.117
101 kPa, x1 = 0.4934 | 1.813 | 1.304 | – | 1.063
101 kPa, x1 = 0.5937 | 1.767 | 1.248 | – | 1.046
101 kPa, x1 = 0.6944 | 1.723 | 1.219 | – | 1.036
101 kPa, x1 = 0.7957 | 1.674 | 1.191 | – | 0.996
101 kPa, x1 = 0.8976 | 1.622 | 1.179 | – | 0.9925
101.33 kPa, x1 = 0.1184 | – | 1.694 | – | –
101.33 kPa, x1 = 0.2345 | – | 1.551 | – | –
101.33 kPa, x1 = 0.3377 | – | 1.443 | – | –
101.33 kPa, x1 = 0.4484 | – | 1.361 | – | –
101.33 kPa, x1 = 0.5476 | – | 1.305 | – | –
101.33 kPa, x1 = 0.6312 | – | 1.265 | – | –
101.33 kPa, x1 = 0.7363 | – | 1.229 | – | –
101.33 kPa, x1 = 0.9104 | – | 1.195 | – | –

CCOC(=O)C(=O)OCC + c1ccccc1
303.15 K, 101 kPa
Conditions | viscosity [mPa·s]
x1 = 0.0682 | 0.5918
x1 = 0.1415 | 0.6316
x1 = 0.2203 | 0.6727
x1 = 0.3054 | 0.7255
x1 = 0.3972 | 0.7942
x1 = 0.4972 | 0.8854
x1 = 0.6066 | 1.009
x1 = 0.7258 | 1.164
x1 = 0.8557 | 1.374

[Cl-].[Li+] + CN1CCCC1=O
298.15 K, 101 kPa
Conditions | viscosity [mPa·s]
x1 = 0.03756 | 2.607
x1 = 0.03819 | 2.63
x1 = 0.04156 | 2.626
x1 = 0.07132 | 3.558
x1 = 0.07175 | 3.558
x1 = 0.07229 | 3.56
x1 = 0.1038 | 4.959
x1 = 0.1042 | 4.958
x1 = 0.1044 | 4.958

CCCCNCCCC + CCCCCCO
viscosity [mPa·s], 101.33 kPa
Conditions | x1 = 0.1034 | x1 = 0.1705 | x1 = 0.2901 | x1 = 0.3817 | x1 = 0.5001 | x1 = 0.5958 | x1 = 0.6955 | x1 = 0.7942 | x1 = 0.9007
303.15 K | 3.304 | 2.992 | 2.495 | 2.156 | 1.776 | 1.52 | 1.277 | 1.088 | 0.9036
313.15 K | 2.723 | 2.473 | 2.069 | 1.792 | 1.475 | 1.265 | 1.088 | 0.9214 | 0.7818

CCCC[N+](CCCC)(CCCC)Cc1ccccc1.[Cl-] + OCCOCCO
Conditions | viscosity [mPa·s]
293.15 K, 100 kPa, x1 = 0.25 | 433.5

COCCO + OCCO
viscosity [mPa·s], 101 kPa
Conditions | x2 = 0.1359 | x2 = 0.2614 | x2 = 0.3776 | x2 = 0.4859 | x2 = 0.5861 | x2 = 0.6799 | x2 = 0.7676 | x2 = 0.8499 | x2 = 0.9272
293.15 K | 2.281 | 3.192 | 3.871 | 5.319 | 6.607 | 8.77 | 10.8 | 14 | 17.35
298.15 K | 2.034 | 2.799 | 3.383 | 4.577 | 5.633 | 7.281 | 9.021 | 11.5 | 14.18
303.15 K | 1.826 | 2.471 | 2.981 | 3.965 | 4.84 | 6.282 | 7.583 | 9.579 | 11.66
308.15 K | 1.652 | 2.2 | 2.644 | 3.468 | 4.194 | 5.372 | 6.436 | 8.035 | 9.727
313.15 K | 1.494 | 1.97 | 2.364 | 3.051 | 3.663 | 4.643 | 5.522 | 6.84 | 8.193
318.15 K | 1.359 | 1.775 | 2.14 | 2.718 | 3.218 | 4.04 | 4.701 | 5.855 | 6.98
323.15 K | 1.241 | 1.604 | 1.938 | 2.399 | 2.851 | 3.547 | 4.102 | 5.049 | 5.979
